Source: US20260083865A1, “PROSTATE SPECIFIC MEMBRANE ANTIGEN (PSMA) LIGANDS AND USE THEREOF” (priority 2022, published 2026)
Where two headings read alike, the source gives them in different places. Numbered stars: 1 amine (or outer) side, 2 acyl side, 3 side chain; on linkers, the order of the positions; unused ones are H or OH. Bridge positions count the residues as written; N and C are the ends. Square brackets hold non-standard residues; d marks the D form. Peptide text beside a SMILES is read from it. * marks the point of attachment. DOTA = O=C(O)CN1CCN(CC(=O)O)CCN(CC(=O)*)CCN(CC(=O)O)CC1; Trp(5-Br) = N[C@@H](Cc1c[nH]c2ccc(Br)cc12)C(=O)O; Phe(4-Cl) = N[C@@H](Cc1ccc(Cl)cc1)C(=O)O; 2Nal = N[C@@H](Cc1ccc2ccccc2c1)C(=O)O; X1 = O=C(CC1CCN([*:1])CC1)[*:2]; Cit = NC(=O)NCCC[C@H](N)C(=O)O; Tle = CC(C)(C)[C@H](N)C(=O)O; Aib = CC(C)(N)C(=O)O; βAla = NCCC(=O)O

Columns and labels:
[1] = target: T1, PSMA-expressing C4-2 cells (Homo sapiens, UniProt Q04609); test: FACS binding assay (competition with 50 nM PSM-0183); settings: read-out: pIC50 [C4-2] CAT (converted)
T1 construct: PSMA-expressing C4-2 cells (ATCC, Cat. No. CRL-3314) were cultured in RPMI-1640; host or cells: C4-2 cells
T1 sequence (Q04609 whole entry): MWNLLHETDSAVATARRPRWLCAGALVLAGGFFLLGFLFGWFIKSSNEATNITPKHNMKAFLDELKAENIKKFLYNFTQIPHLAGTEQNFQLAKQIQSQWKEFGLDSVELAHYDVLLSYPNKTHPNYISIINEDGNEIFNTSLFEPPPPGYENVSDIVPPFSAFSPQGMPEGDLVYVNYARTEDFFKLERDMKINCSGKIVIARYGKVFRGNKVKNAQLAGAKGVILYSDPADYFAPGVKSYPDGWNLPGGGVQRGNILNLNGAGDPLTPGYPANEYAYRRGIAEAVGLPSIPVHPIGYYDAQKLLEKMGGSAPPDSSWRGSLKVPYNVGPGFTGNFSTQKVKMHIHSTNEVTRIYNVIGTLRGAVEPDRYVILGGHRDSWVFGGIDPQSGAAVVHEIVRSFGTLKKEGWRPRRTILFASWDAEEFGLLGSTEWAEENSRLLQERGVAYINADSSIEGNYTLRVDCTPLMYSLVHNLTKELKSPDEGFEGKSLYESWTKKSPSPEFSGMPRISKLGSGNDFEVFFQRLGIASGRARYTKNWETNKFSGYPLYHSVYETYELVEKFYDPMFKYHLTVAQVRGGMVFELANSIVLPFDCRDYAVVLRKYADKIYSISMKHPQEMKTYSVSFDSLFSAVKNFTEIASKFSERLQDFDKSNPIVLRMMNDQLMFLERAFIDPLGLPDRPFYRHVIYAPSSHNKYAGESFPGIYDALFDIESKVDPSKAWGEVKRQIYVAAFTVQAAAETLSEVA
Method in brief: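 C4-2 cells were incubated 1 h at 4 °C with 50 nM AF488-labelled peptide PSM-0183 plus increasing test compound concentrations, then washed twice in ice-cold buffer. Median fluorescence in the AF488 channel was read by flow cytometry. IC50/pIC50 was derived by 4PL fitting of MFI versus concentration.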

[2] = target: T2, Fc-fusion protein of human PSMA (hPSMA-Fc) (Homo sapiens, UniProt Q04609); test: Surface plasmon resonance assay (Biacore T200, single cycle kinetic); type: binding; settings: hPSMA-Fc, 25° C., read-out: pKD CAT (converted)
T2 construct: purchased Acro Biosystems PSA-H5264
T2 sequence (Q04609 44-750 limits assumed): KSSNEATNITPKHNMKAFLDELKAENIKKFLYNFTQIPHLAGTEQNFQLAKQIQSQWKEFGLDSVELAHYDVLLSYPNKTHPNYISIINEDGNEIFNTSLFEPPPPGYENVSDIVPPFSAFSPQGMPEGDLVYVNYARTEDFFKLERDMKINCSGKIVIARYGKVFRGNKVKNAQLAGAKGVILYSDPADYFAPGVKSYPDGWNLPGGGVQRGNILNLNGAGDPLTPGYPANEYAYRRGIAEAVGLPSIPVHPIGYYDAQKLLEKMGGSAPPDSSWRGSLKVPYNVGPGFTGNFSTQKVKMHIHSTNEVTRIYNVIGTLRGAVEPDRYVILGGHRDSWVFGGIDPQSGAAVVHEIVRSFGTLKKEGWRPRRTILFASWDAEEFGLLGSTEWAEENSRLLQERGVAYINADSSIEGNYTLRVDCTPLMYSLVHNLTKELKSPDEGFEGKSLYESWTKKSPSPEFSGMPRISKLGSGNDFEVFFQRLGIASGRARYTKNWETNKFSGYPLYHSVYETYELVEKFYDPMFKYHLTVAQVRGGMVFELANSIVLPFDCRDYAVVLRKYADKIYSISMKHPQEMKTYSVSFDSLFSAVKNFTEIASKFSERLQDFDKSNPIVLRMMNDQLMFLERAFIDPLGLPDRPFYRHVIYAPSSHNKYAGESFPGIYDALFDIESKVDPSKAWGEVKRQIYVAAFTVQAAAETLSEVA
Method in brief: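 hPSMA-Fc was captured (~1000 RU) on an Fc-binding-peptide CM5 chip, and compounds were run in single cycle kinetic mode at 25° C in HBST with 0.1% DMSO. Double-blank-corrected sensorgrams were fitted to a 1:1 Langmuir model to give KD, reported as pKD.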

[3] = FACS binding, PSMA-expressing C4-2 cells, pIC50 category
[4] = pIC50 category of FACS binding, C4-2 cells
[5] = pKD category for PSMA SPR activity assay

## C[C@@H](O)[C@H](NC(=O)[C@@H](NC(=O)[C@@H]1CSSC[C@H](NC(=O)[C@H](Cc2c[nH]c3ccc(Br)cc23)NC(=O)C(C)(C)NC(=O)[C@@H](NC(=O)CC2CCN(C(=O)CN3CCN(CC(=O)O)CCN(CC(=O)O)CCN(CC(=O)O)CC3)CC2)[C@@H](C)O)C(=O)N[C@@H](CCCCN)C(=O)N[C@@H](CCCNC(N)=O)C(=O)NC(C)(C)C(=O)N[C@@H](CC(N)=O)C(=O)N1)C(C)(C)C)C(N)=O [PSM-0359, DOTA-Cmp-Thr-Aib-5Brw-[Cys-Lys-Cit-Aib-Asn-Cys]-Tle-Thr-NH2] ({DOTA}-[X1]T[Aib][Trp(5-Br)]CK[Cit][Aib]NC[Tle]T-NH2; disulfide 5-10)
[1]; [3]
  IC50: > 3160 nM
[2]; PSMA SPR assay, pKD category
  Kd: > 501 nM

## CC(=O)N[C@H](C(=O)NC(C)(C)C(=O)N[C@@H](Cc1ccc2ccccc2c1)C(=O)N[C@H]1CSSC[C@@H](C(=O)N[C@H](C(=O)N[C@H](C(=O)N[C@@H](CC(=O)O)C(N)=O)[C@@H](C)O)C(C)(C)C)NC(=O)[C@H](CC(N)=O)NC(=O)C(C)(C)NC(=O)[C@H](CCCNC(=N)N)NC(=O)[C@H](CCCCN)NC1=O)[C@@H](C)O [PSM-0517, Ac-Thr-Aib-2Ni-[Cys-Lys-Arg-Aib-Asn-Cys]-Tle-Thr-Asp-NH2] (Ac-T[Aib][2Nal]CKR[Aib]NC[Tle]TD-NH2; disulfide 4-9)
[1]; [4]
  IC50: < 200 nM
[2]; [5]
  Kd: < 12.6 nM

## CC(=O)N[C@H](C(=O)NC(C)(C)C(=O)N[C@@H](Cc1ccccc1)C(=O)N[C@H]1CSSC[C@@H](C(=O)N[C@H](C(=O)N[C@H](C(N)=O)[C@@H](C)O)C(C)(C)C)NC(=O)[C@H](CC(N)=O)NC(=O)[C@H](CCCCNC(=O)CN2CCN(CC(=O)O)CCN(CC(=O)O)CCN(CC(=O)O)CC2)NC(=O)[C@H](CCCNC(=N)N)NC(=O)[C@H](CCCCN)NC1=O)[C@@H](C)O [PSM-0326, Ac-Thr-Aib-Phe-[Cys-Lys-Arg-Lys(DOTA)-Asn-Cys]-Tle-Thr-NH2] (Ac-T[Aib]FCKRK(DOTA)NC[Tle]T-NH2; disulfide 4-9)
[1]; [3]
  IC50: < 200 nM
[2]; PSMA SPR assay, pKD category
  Kd: 12.6 to 126 nM

## C=C1N[C@@H](CCCCN)C(=O)N[C@@H](CCCNC(=N)N)C(=O)NC(C)(C)C(=O)N[C@@H](CC(N)=O)C(=O)N[C@H](C(=O)N[C@H](C(=O)N[C@H](C(=O)NCCOCCOCC(=O)N[C@H](CCCCNC(=O)CN2CCN(CC(=O)O)CCN(CC(=O)O)CCN(CC(=O)O)CC2)C(N)=O)[C@@H](C)O)C(C)(C)C)CSSC[C@@H]1NC(=O)[C@H](Cc1ccccc1)NC(=O)C(C)(C)NC(=O)[C@@H](NC(C)=O)[C@@H](C)O [PSM-0529, Ac-Thr-Aib-Phe-[Cys-Lys-Arg-Aib-Asn-Cys]-Tle-Thr-O2Oc-lys(DOTA)-NH2]
[1]; [4]
  IC50: < 200 nM
[2]; [5]
  Kd: < 12.6 nM

## CC(=O)N[C@@H](Cc1ccc(Cl)cc1)C(=O)N[C@H]1CSSC[C@@H](C(=O)N[C@H](C(N)=O)C(C)(C)C)NC(=O)[C@H](CC(N)=O)NC(=O)C(C)(C)NC(=O)[C@H](CCCNC(=N)N)NC(=O)[C@H](CCCCN)NC1=O [PSM-0281, Ac-Pcf-[Cys-Lys-Arg-Aib-Asn-Cys]-Tle-NH2] (Ac-[Phe(4-Cl)]CKR[Aib]NC[Tle]-NH2; disulfide 2-7)
[1]; [3]
  IC50: > 3160 nM
[2]; PSMA SPR assay, pKD category
  Kd: > 501 nM

## C[C@@H](O)[C@H](NC(=O)CN1CCN(CC(=O)O)CCN(CC(=O)O)CCN(CC(=O)O)CC1)C(=O)NC(C)(C)C(=O)N[C@@H](Cc1ccc(Cl)cc1)C(=O)N[C@H]1CSSC[C@@H](C(=O)N[C@H](C(=O)NCCC(N)=O)C(C)(C)C)NC(=O)[C@H](CC(N)=O)NC(=O)C(C)(C)NC(=O)[C@H](CCCNC(=N)N)NC(=O)[C@H](CCCCN)NC1=O [PSM-0216, DOTA-Thr-Aib-Pcf-[Cys-Lys-Arg-Aib-Asn-Cys]-Tle-Bal-NH2] ({DOTA}-T[Aib][Phe(4-Cl)]CKR[Aib]NC[Tle][βAla]-NH2; disulfide 4-9)
[1]; FACS binding, C4-2 cells, competition with 50 nM PSM-0183, category
  IC50: < 200 nM
[2]; SPR, single cycle kinetic, category
  Kd: < 12.6 nM

## C[C@@H](O)[C@H](NC(=O)[C@@H](NC(=O)[C@@H]1CSSC[C@H](NC(=O)[C@H](Cc2ccc(Cl)cc2)NC(=O)C(C)(C)NC(=O)CN2CCN(CC(=O)O)CCN(CC(=O)O)CCN(CC(=O)O)CC2)C(=O)N[C@@H](CCCCN)C(=O)N[C@@H](CCCNC(=N)N)C(=O)NC(C)(C)C(=O)N[C@@H](CC(N)=O)C(=O)N1)C(C)(C)C)C(N)=O [PSM-0290, DOTA-Aib-Pcf-[Cys-Lys-Arg-Aib-Asn-Cys]-Tle-Thr-NH2] ({DOTA}-[Aib][Phe(4-Cl)]CKR[Aib]NC[Tle]T-NH2; disulfide 3-8)
[1]; [3]
  IC50: > 3160 nM
[2]; PSMA SPR assay, pKD category
  Kd: > 501 nM
